Legend:
[1] = biological target: T1, BRD4 (BDII_E352-M457) (Homo sapiens, UniProt O60885); assay: TR-FRET bromodomain binding assay, BRD4 second bromodomain; conditions: His-tagged BD2, Alexa647-labeled probe 30 nM; Ki calculated from IC50
T1 construct: made in house
How it was run: (§1)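 Affinity for each isolated His-tagged domain was measured as competition with a fluorescent Alexa647 BET-inhibitor probe in a TR-FRET format at pH 6.0, 1 h room temperature incubation. Ki values were calculated from fitted IC50s, probe Kd and probe level (100 nM BDI, 30 nM BDII).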

[2] = biological target: T2, BRD4 (BDI_K57-E168) (Homo sapiens, UniProt O60885); assay: TR-FRET bromodomain binding assay, BRD4 first bromodomain; conditions: His-tagged BD1, Alexa647-labeled probe 100 nM; Ki calculated from IC50
T2 construct: BD1: amino acids K57-E168; made in house
How it was run: as §1

Row | SMILES | Ki [1] [µM] | Ki [2] [µM]
1 | COc1cc(CNc2ccccc2-c2cc(C(N)=O)c(C)[nH]2)cc(OC)c1OC [Example 16, 2-methyl-5-{2-[(3,4,5-trimethoxybenzyl)amino]phenyl}-1H-pyrrole-3-carboxamide] | 2.02 | 1.18
2 | Cc1[nH]c(-c2ccccc2NC2CCNCC2)cc1C(N)=O [Example 65, 2-methyl-5-[2-(piperidin-4-ylamino)phenyl]-1H-pyrrole-3-carboxamide] | 12.2 | 0.634
3 | Cc1[nH]c(-c2ccc(-c3cccc(C(=O)N(C)C)c3)cc2)cc1C(N)=O [Example 104, 5-[3′-(dimethylcarbamoyl)biphenyl-4-yl]-2-methyl-1H-pyrrole-3-carboxamide] | 2.34 | 2.38
4 | Cc1[nH]c(-c2cccc(-c3cn[nH]c3)c2)cc1C(N)=O [Example 155, 2-methyl-5-[3-(1H-pyrazol-4-yl)phenyl]-1H-pyrrole-3-carboxamide] | 5.46 | 2.57
5 | Cc1[nH]c(-c2ccccc2N)cc1C(N)=O [Example 1, 5-(2-aminophenyl)-2-methyl-1H-pyrrole-3-carboxamide] | 6.21 | 2.54
6 | Cc1[nH]c(-c2ccccc2NCc2cc(Cl)cc(Cl)c2)cc1C(N)=O [Example 39, 5-{2-[(3,5-dichlorobenzyl)amino]phenyl}-2-methyl-1H-pyrrole-3-carboxamide] | 4.98 | 3.82
7 | Cc1[nH]c(-c2ccc(-c3cccc(C(=O)NCc4ccco4)c3)cc2)cc1C(N)=O [Example 106, 5-{3′-[(furan-2-ylmethyl)carbamoyl]biphenyl-4-yl}-2-methyl-1H-pyrrole-3-carboxamide] | 4.87 | 6.01
8 | Cc1[nH]c(-c2ccccc2Oc2ccc(C#N)cc2)cc1C(N)=O [Example 123, 5-[2-(4-cyanophenoxy)phenyl]-2-methyl-1H-pyrrole-3-carboxamide] | 12.6 | 1.97
9 | Cc1[nH]c(-c2ccccc2NC2CCC2)cc1C(N)=O [Example 66, 5-[2-(cyclobutylamino)phenyl]-2-methyl-1H-pyrrole-3-carboxamide] | 6.15 | 1.76
10 | Cc1[nH]c(-c2ccc(N)cc2)cc1C(N)=O [Example 8, 5-(4-aminophenyl)-2-methyl-1H-pyrrole-3-carboxamide] | 3.72 | 2.68
11 | CCc1ccc(Oc2ccccc2-c2cc(C(N)=O)c(C)[nH]2)cc1 [Example 143, 5-[2-(4-ethylphenoxy)phenyl]-2-methyl-1H-pyrrole-3-carboxamide] | 2.11 | 0.259
12 | Cc1[nH]c(-c2ccccc2NCC2CCN(C(=O)OC(C)(C)C)CC2)cc1C(N)=O [Example 41, tert-butyl 4-({[2-(4-carbamoyl-5-methyl-1H-pyrrol-2-yl)phenyl]amino}methyl)piperidine-1-carboxylate] | 16.5 | 0.48
13 | Cc1[nH]c(-c2ccc(-c3ccc(NS(C)(=O)=O)cc3)cc2)cc1C(N)=O [Example 110, 2-methyl-5-{4′-[(methylsulfonyl)amino]biphenyl-4-yl}-1H-pyrrole-3-carboxamide] | 5.9 | 4.03
14 | Cc1[nH]c(-c2ccc(-c3ccsc3)cc2)cc1C(N)=O [Example 101, 2-methyl-5-[4-(thiophen-3-yl)phenyl]-1H-pyrrole-3-carboxamide] | 5.33 | 7.37
15 | Cc1[nH]c(-c2ccccc2NCc2ccc(C(F)(F)F)cc2)cc1C(N)=O [Example 28, 2-methyl-5-(2-{[4-(trifluoromethyl)benzyl]amino}phenyl)-1H-pyrrole-3-carboxamide] | 13.6 | 9.45
16 | Cc1[nH]c(-c2ccccc2NCc2ccc(Br)cc2)cc1C(N)=O [Example 32, 5-{2-[(4-bromobenzyl)amino]phenyl}-2-methyl-1H-pyrrole-3-carboxamide] | 10.3 | 5.17
17 | Cc1[nH]c(-c2ccccc2NC2Cc3ccccc3C2)cc1C(N)=O [Example 69, 5-[2-(2,3-dihydro-1H-inden-2-ylamino)phenyl]-2-methyl-1H-pyrrole-3-carboxamide] | 2.34 | 0.663
18 | Cc1noc(C)c1-c1ccc(-c2cc(C(N)=O)c(C)[nH]2)cc1 [Example 92, 5-[4-(3,5-dimethyl-1,2-oxazol-4-yl)phenyl]-2-methyl-1H-pyrrole-3-carboxamide] | 2.43 | 1.69
19 | Cc1[nH]c(-c2cccc(-c3ccc4c(ccn4C)c3)c2)cc1C(N)=O [Example 156, 2-methyl-5-[3-(1-methyl-1H-indol-5-yl)phenyl]-1H-pyrrole-3-carboxamide] | 21.9 | 8.49
20 | Cc1[nH]c(-c2cc(NS(C)(=O)=O)ccc2Oc2ccccc2)cc1C(N)=O [Example 162, 2-methyl-5-{5-[(methylsulfonyl)amino]-2-phenoxyphenyl}-1H-pyrrole-3-carboxamide] | 0.754 | 0.0591

Row | SMILES | Ki [1] [µM] | Ki [2] [µM]
21 | Cc1[nH]c(-c2ccccc2NCc2cc(Br)cs2)cc1C(N)=O [Example 15, 5-(2-{[(4-bromothiophen-2-yl)methyl]amino}phenyl)-2-methyl-1H-pyrrole-3-carboxamide] | 2.31 | 2.58
22 | CC(=O)c1ccccc1-c1cccc(-c2cc(C(N)=O)c(C)[nH]2)c1 [Example 153, 5-(2′-acetylbiphenyl-3-yl)-2-methyl-1H-pyrrole-3-carboxamide] | 7.32 | 2.22
23 | CC(=O)Nc1ccccc1-c1cc(C(N)=O)c(C)[nH]1 [Example 2, 5-[2-(acetylamino)phenyl]-2-methyl-1H-pyrrole-3-carboxamide] | 21.5 | 2.92
24 | Cc1[nH]c(-c2ccccc2NCc2ccc(Cl)cc2)cc1C(N)=O [Example 11, 5-{2-[(4-chlorobenzyl)amino]phenyl}-2-methyl-1H-pyrrole-3-carboxamide] | 2.51 | 2.87
25 | Cc1[nH]c(-c2ccccc2Oc2ccc3c(c2)CCC3)cc1C(N)=O [Example 144, 5-[2-(2,3-dihydro-1H-inden-5-yloxy)phenyl]-2-methyl-1H-pyrrole-3-carboxamide] | 1.23 | 0.446
26 | Cc1[nH]c(-c2ccccc2Nc2ccccc2)cc1C(N)=O [Example 77, 2-methyl-5-[2-(phenylamino)phenyl]-1H-pyrrole-3-carboxamide] | 0.983 | 0.172
27 | Cc1[nH]c(-c2cccc(-c3cccnc3)c2)cc1C(N)=O [Example 154, 2-methyl-5-[3-(pyridin-3-yl)phenyl]-1H-pyrrole-3-carboxamide] | 7.12 | 2.99
28 | Cc1[nH]c(-c2ccc(-c3ccoc3)cc2)cc1C(N)=O [Example 100, 5-[4-(furan-3-yl)phenyl]-2-methyl-1H-pyrrole-3-carboxamide] | 5.32 | 8.36
29 | Cc1[nH]c(-c2ccc(-c3cncnc3)cc2)cc1C(N)=O [Example 109, 2-methyl-5-[4-(pyrimidin-5-yl)phenyl]-1H-pyrrole-3-carboxamide] | 4.42 | 9.24
30 | CC(=O)Nc1ccc(-c2cc(C(N)=O)c(C)[nH]2)cc1 [Example 10, 5-[4-(acetylamino)phenyl]-2-methyl-1H-pyrrole-3-carboxamide] | 5.57 | 3.47
31 | Cc1ccccc1CNc1ccccc1-c1cc(C(N)=O)c(C)[nH]1 [Example 24, 2-methyl-5-{2-[(2-methylbenzyl)amino]phenyl}-1H-pyrrole-3-carboxamide] | 1.19 | 1.06
32 | Cc1[nH]c(-c2ccccc2NCc2ccc(F)cc2)cc1C(N)=O [Example 23, 5-{2-[(4-fluorobenzyl)amino]phenyl}-2-methyl-1H-pyrrole-3-carboxamide] | 3.53 | 3.52
33 | Cc1[nH]c(-c2ccccc2NCc2ccc(CO)o2)cc1C(N)=O [Example 55, 5-[2-({[5-(hydroxymethyl)furan-2-yl]methyl}amino)phenyl]-2-methyl-1H-pyrrole-3-carboxamide] | 4.94 | 0.722
34 | Cc1[nH]c(-c2ccc(NS(C)(=O)=O)cc2)cc1C(N)=O [Example 9, 2-methyl-5-{4-[(methylsulfonyl)amino]phenyl}-1H-pyrrole-3-carboxamide] | 3.14 | 2.88
35 | Cc1[nH]c(-c2ccccc2Oc2ccccc2Cc2ccccc2)cc1C(N)=O [Example 138, 5-[2-(2-benzylphenoxy)phenyl]-2-methyl-1H-pyrrole-3-carboxamide] | 1.82 | 1.48
36 | Cc1[nH]c(-c2ccccc2NCc2cc(C(F)(F)F)cc(C(F)(F)F)c2)cc1C(N)=O [Example 21, 5-(2-{[3,5-bis(trifluoromethyl)benzyl]amino}phenyl)-2-methyl-1H-pyrrole-3-carboxamide] | 21.5 | 9.69
37 | Cc1[nH]c(-c2ccccc2NS(=O)(=O)c2cccnc2)cc1C(N)=O [Example 80, 2-methyl-5-{2-[(pyridin-3-ylsulfonyl)amino]phenyl}-1H-pyrrole-3-carboxamide] | 13.4 | 9.39
38 | Cc1[nH]c(-c2cccc([N+](=O)[O-])c2)cc1C(N)=O [Example 3, 2-methyl-5-(3-nitrophenyl)-1H-pyrrole-3-carboxamide] | 7.2 | 2.33
39 | Cc1[nH]c(-c2ccccc2Br)cc1C(N)=O [Example 115, 5-(2-bromophenyl)-2-methyl-1H-pyrrole-3-carboxamide] | 7.12 | 1.85

From patent US9493411B2 (AbbVie Inc., priority 2013, dated 2016)
